Columns and labels:
[1] = tested on: Mus musculus; assay: (§1) AUC (0 to 8 hrs) in mouse at 1 mg/kg, po administered as cassette dose; type: ADME, organism-based; design: time < 8 hr, dose 1 mg/kg, route oral; conditions: in vivo, 8 h
[2] = AUC (0 to 24 hrs) in mouse plasma at 100 mg/kg, po; type: ADME, organism-based; design: dose 100 mg/kg, time < 24 hr, route oral
[3] = Tmax in mouse plasma at 100 mg/kg, po; type: ADME, organism-based
[4] = Drug uptake in po dosed Balb/c mouse ear; type: ADME, organism-based; conditions: in vivo
[5] = Cmax in mouse plasma at 100 mg/kg, po; type: ADME, organism-based; design: dose 100 mg/kg, route oral
[6] = Drug uptake in po dosed Balb/c mouse ear after 8 hrs; type: ADME, organism-based; conditions: in vivo
[7] = tested on: Mus musculus; assay: In vivo inverse agonist activity at RORgammat in Balb/c mouse assessed as inhibition of IL-23-induced IL-17a gene expression at 100 mg/kg, po administered 30 mins before and 8 hrs after IL-23 injection in ears intradermally measured after 24 hrs by qRT-PCR analysis relative to control; type: functional
[8] = Drug uptake in Balb/c mouse plasma at 10 to 100 mg/kg, po; type: ADME, organism-based; conditions: in vivo
[9] = target: T1, Nuclear receptor ROR-gamma (Homo sapiens, UniProt P51449); assay: Inverse agonist activity at RORgammat in human Jurkat cells assessed as inhibition of transcriptional activity after overnight incubation by human IL-17 ROR response element driven-bright-glo luciferase reporter gene assay; type: cell-based
T1 sequence (P51449 whole entry): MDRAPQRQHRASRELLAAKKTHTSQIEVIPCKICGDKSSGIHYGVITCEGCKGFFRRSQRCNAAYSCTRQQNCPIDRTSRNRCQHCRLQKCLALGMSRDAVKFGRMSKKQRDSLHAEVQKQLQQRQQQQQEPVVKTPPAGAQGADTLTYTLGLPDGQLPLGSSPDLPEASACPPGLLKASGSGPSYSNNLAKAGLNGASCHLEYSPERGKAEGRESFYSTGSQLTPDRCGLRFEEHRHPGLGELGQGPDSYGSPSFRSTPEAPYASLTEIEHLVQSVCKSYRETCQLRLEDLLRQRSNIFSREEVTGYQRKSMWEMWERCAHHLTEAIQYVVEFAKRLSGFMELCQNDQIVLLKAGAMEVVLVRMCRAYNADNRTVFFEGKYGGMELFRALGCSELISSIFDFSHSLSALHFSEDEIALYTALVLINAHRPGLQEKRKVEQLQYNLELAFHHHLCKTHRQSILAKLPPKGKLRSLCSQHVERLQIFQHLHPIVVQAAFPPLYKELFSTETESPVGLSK

[10] = target: T1, Nuclear receptor ROR-gamma; assay: Displacement of BODIPY-cholesterol from human His-tagged RORgammat after 20 mins by TR-FRET assay
[11] = target: T2, Nuclear receptor ROR-gamma (Homo sapiens) (UniProt P51449); assay: Displacement of 25-[3H2]hydroxycholesterol from GST-tagged RORgammat (unknown origin) at 10 uM
T2 sequence (whole entry): T1 sequence (P51449 whole entry)

[12] = species on record: Homo sapiens; assay: Selectivity ratio of IC50 for RORbeta in human Jurkat cells to IC50 for RORgammat in human Jurkat cells; type: cell-based
[13] = species on record: Homo sapiens; assay: Selectivity ratio of IC50 for RORalpha in human Jurkat cells to IC50 for RORgammat in human Jurkat cells; type: cell-based
[14] = as §1; type: ADME, organism-based; design: time < 8 hr, dose 1 mg/kg, route oral; conditions: in vivo

**Q.** Which AUC [1] does the source give for `COc1ccc([C@H](C(=O)Nc2cc(F)c([Si](C)(C)C)c(F)c2)N(C)C(=O)c2cc(O)no2)cc1` here?
**A.** 370 ng·h/mL

**Q.** And the AUC(0-t) at 24 h [2]?
**A.** 47400 ng·h/mL

**Q.** What about the Tmax [3] of the same molecule?
**A.** 1 h

**Q.** And the Drug uptake [4]?
**A.** Dose-dependent effect and Tde

**Q.** What about the Cmax [5] of the same molecule?
**A.** 9120 ng/mL

**Q.** What about the Drug uptake [6] of the same molecule?
**A.** Active

**Q.** What about the inhibition in vivo at 100 mg/kg [7] of the same molecule?
**A.** 71%

**Q.** And the Drug uptake [8]?
**A.** Active

**Q.** For `COc1ccc(C(C(=O)Nc2ccc(C(C)C)cc2)N(C)C(=O)c2ccc(O)nc2)cc1` (racemic), which IC50 [9] is on record?
**A.** 1.6 µM

**Q.** What about the IC50 [10] of the same molecule?
**A.** 0.2 µM

**Q.** What about the inhibition [11] of the same molecule?
**A.** 93%

**Q.** What about the Ratio IC50 [12] of the same molecule?
**A.** > 15

**Q.** What about the Ratio IC50 [13] of the same molecule?
**A.** > 15

**Q.** With `COc1ccc(C(C(=O)Nc2ccc([Si](C)(C)C)cc2)N(C)C(=O)c2ccc(O)nc2)cc1` (racemic) as the molecule, how does the AUC(0-t) at 8 h [14] read?
**A.** 86 ng·h/mL

**Q.** For `COc1ccc(C(CC(=O)Nc2ccc(C(C)(C)C)cc2)N(C)C(=O)c2ccc(=O)[nH]c2)cc1` (racemic), which IC50 [9] is on record?
**A.** > 30 µM

**Q.** What about the IC50 [10] of the same molecule?
**A.** > 10 µM

**Q.** Which IC50 [9] does the source give for `COc1ccc(CC(C(=O)Nc2ccc(C(C)(C)C)cc2)N(C)C(=O)c2ccc(=O)[nH]c2)cc1` (racemic) here?
**A.** > 30 µM

**Q.** And the IC50 [10]?
**A.** > 10 µM

**Q.** With `COc1ccc(C(C(=O)Nc2cc(F)c([Si](C)(C)C)c(F)c2)N(C)C(=O)c2cc(O)no2)cc1` (racemic) as the molecule, how does the AUC(0-t) at 8 h [14] read?
**A.** 1510 ng·h/mL

**Q.** For `COc1ccc(C(C(=O)Nc2ccc([Si](C)(C)C)cc2)N(C)C(=O)c2cc(O)no2)cc1` (racemic), which AUC(0-t) at 8 h [14] is on record?
**A.** 1590 ng·h/mL

**Q.** What does the source list for `COc1ccc(C(C(=O)N(C)c2ccc(C(C)(C)C)cc2)N(C)C(=O)c2ccc(=O)[nH]c2)cc1` (racemic)?
**A.** IC50 [9]: > 30 µM; IC50 [10]: > 10 µM

From ChEMBL document CHEMBL4184189, “Discovery of orally efficacious RORγt inverse agonists, part 1: Identification of novel phenylglycinamides as lead scaffolds” (Bioorg Med Chem, 2018)
